Assay results from paper PMC3501516, “Anti-Diabetic Efficacy and Impact on Amino Acid Metabolism of GRA1, a Novel Small-Molecule Glucagon Receptor Antagonist” (PLoS ONE, 2012).

Test system: rhesus monkeys
Test: Fasted plasma glucagon, glucose and amino acids in rhesus monkeys dosed 14 days
Assay type: in vivo, rhesus monkey
Description: In a follow-up experiment, adult rhesus monkeys were dosed once daily for 14 days with 30 mg/kg GRA1 or vehicle (0.5% methylcellulose plus 0.02% sodium dodecyl sulfate in 2 mL/kg water) delivered by oral gavage. Blood samples were collected on days 0, 1, 7, and 14 after the animals had fasted overnight. Plasma concentrations of glucose, glucagon, and amino acids were assayed by the Hormone Assay & Analytical Services Core at Vanderbilt University (Nashville, TN).

[1] = rhesus, 30 mg/kg once daily, Day 0
[2] = rhesus, 30 mg/kg once daily, Day 1
[3] = rhesus, 30 mg/kg once daily, Day 7
[4] = rhesus, 30 mg/kg once daily, Day 14

COc1ccc2cc(-c3cc(-c4cc(C(F)(F)F)ccc4F)nn3[C@@H](C)c3ccc(C(=O)NCCC(=O)O)cc3)ccc2c1 [GRA1, N-[4-((1S)-1-{3-(2-fluoro-5-trifluoromethylphenyl)-5-[6-methoxynaphth-2-yl]-1H-pyrazol-1-yl}ethyl)benzoyl]-β-alanine]
Hypoglycemia (normoglycemic rhesus, 30 mg/kg once daily, 14 days): not rendered hypoglycemic
Plasma insulin (rhesus, 30 mg/kg once daily (data not shown)): unaffected
Alanine, fasted plasma [1]: 200 ± 21 µM
Arginine, fasted plasma [1]: 124 ± 15 µM
Asparagine, fasted plasma [1]: 61.2 ± 17.8 µM
Aspartic acid, fasted plasma [1]: 5.3 ± 1.3 µM
Glucagon, fasted plasma [1]: 381 ± 74 pg/mL
Glucose, fasted plasma [1]: 85.3 ± 9.4 mg/dL
Glutamic acid, fasted plasma [1]: 48.1 ± 3.6 µM
Glutamine, fasted plasma [1]: 597 ± 66 µM
Glycine, fasted plasma [1]: 300 ± 32 µM
Histidine, fasted plasma [1]: 121 ± 11 µM
Hydroxyproline, fasted plasma [1]: 12.9 ± 2.3 µM
Isoleucine, fasted plasma [1]: 98.2 ± 8.3 µM
Leucine, fasted plasma [1]: 147 ± 9 µM
Lysine, fasted plasma [1]: 191 ± 25 µM
Methionine, fasted plasma [1]: 22.9 ± 2.7 µM
Phenylalanine, fasted plasma [1]: 47.8 ± 2.4 µM
Proline, fasted plasma [1]: 118 ± 13 µM
Serine, fasted plasma [1]: 123 ± 8 µM
Threonine, fasted plasma [1]: 95.2 ± 5.9 µM
Tyrosine, fasted plasma [1]: 77.2 ± 6.8 µM
Valine, fasted plasma [1]: 256 ± 21 µM
Alanine, fasted plasma [2]: 500 ± 79 µM
Arginine, fasted plasma [2]: 237 ± 33 µM
Asparagine, fasted plasma [2]: 42.5 ± 8.3 µM
Aspartic acid, fasted plasma [2]: 5.6 ± 0.7 µM
Glucagon, fasted plasma [2]: 921 ± 16 pg/mL
Glucose, fasted plasma [2]: 63.7 ± 2.7 mg/dL
Glutamic acid, fasted plasma [2]: 71.9 ± 5.7 µM
Glutamine, fasted plasma [2]: 986 ± 150 µM
Glycine, fasted plasma [2]: 533 ± 70 µM
Histidine, fasted plasma [2]: 153 ± 14 µM
Hydroxyproline, fasted plasma [2]: 15.4 ± 2.3 µM
Isoleucine, fasted plasma [2]: 72.4 ± 7.9 µM
Leucine, fasted plasma [2]: 164 ± 24 µM
Lysine, fasted plasma [2]: 390 ± 56 µM
Methionine, fasted plasma [2]: 50.2 ± 10.0 µM
Phenylalanine, fasted plasma [2]: 52.6 ± 7.0 µM
Proline, fasted plasma [2]: 326 ± 54 µM
Serine, fasted plasma [2]: 228 ± 24 µM
Threonine, fasted plasma [2]: 179.1 ± 25.1 µM
Tyrosine, fasted plasma [2]: 161.4 ± 26.8 µM
Valine, fasted plasma [2]: 252 ± 33 µM
Alanine, fasted plasma [3]: 456 ± 68 µM
Arginine, fasted plasma [3]: 341 ± 76 µM
Asparagine, fasted plasma [3]: 54.2 ± 10.8 µM
Aspartic acid, fasted plasma [3]: 6.7 ± 1.2 µM
Glucagon, fasted plasma [3]: 874 ± 101 pg/mL
Glucose, fasted plasma [3]: 69.2 ± 4.9 mg/dL
Glutamic acid, fasted plasma [3]: 98.9 ± 15.2 µM
Glutamine, fasted plasma [3]: 1186 ± 164 µM
Glycine, fasted plasma [3]: 558 ± 74 µM
Histidine, fasted plasma [3]: 170 ± 15 µM
Hydroxyproline, fasted plasma [3]: 23.3 ± 5.3 µM
Isoleucine, fasted plasma [3]: 88.6 ± 8.2 µM
Leucine, fasted plasma [3]: 215 ± 44 µM
Lysine, fasted plasma [3]: 340 ± 71 µM
Methionine, fasted plasma [3]: 36.1 ± 5.6 µM
Phenylalanine, fasted plasma [3]: 49.7 ± 3.3 µM
Proline, fasted plasma [3]: 490 ± 95 µM
Serine, fasted plasma [3]: 256 ± 41 µM
Threonine, fasted plasma [3]: 160.9 ± 21.3 µM
Tyrosine, fasted plasma [3]: 110.6 ± 7.9 µM
Valine, fasted plasma [3]: 260 ± 17 µM
Alanine, fasted plasma [4]: 361 ± 51 µM
Arginine, fasted plasma [4]: 282 ± 54 µM
Asparagine, fasted plasma [4]: 33.8 ± 4.8 µM
Aspartic acid, fasted plasma [4]: 5.9 ± 0.8 µM
Glucagon, fasted plasma [4]: 984 ± 186 pg/mL
Glucose, fasted plasma [4]: 69.2 ± 3.8 mg/dL
Glutamic acid, fasted plasma [4]: 91.9 ± 10.0 µM
Glutamine, fasted plasma [4]: 1151 ± 191 µM
Glycine, fasted plasma [4]: 531 ± 76 µM
Histidine, fasted plasma [4]: 187 ± 21 µM
Hydroxyproline, fasted plasma [4]: 15.3 ± 2.3 µM
Isoleucine, fasted plasma [4]: 89.6 ± 7.8 µM
Leucine, fasted plasma [4]: 218 ± 36 µM
Lysine, fasted plasma [4]: 375 ± 70 µM
Methionine, fasted plasma [4]: 34.7 ± 6.3 µM
Phenylalanine, fasted plasma [4]: 51.5 ± 1.8 µM
Proline, fasted plasma [4]: 415 ± 84 µM
Serine, fasted plasma [4]: 217 ± 28 µM
Threonine, fasted plasma [4]: 155.3 ± 23.3 µM
Tyrosine, fasted plasma [4]: 105.8 ± 9.9 µM
Valine, fasted plasma [4]: 276 ± 20 µM
Increase of plasma glucagon relative to vehicle-treated controls (rhesus, 30 mg/kg once daily, both Day 1 and Day 7): approximately 3 fold
